Reference: PMC10485906, “Development of a Dihydroquinoline–Pyrazoline GluN2C/2D-Selective Negative Allosteric Modulator of the N-Methyl-D-aspartate Receptor” (ACS Chemical Neuroscience, 2023)
Where “and” joins values, the source holds several entries; their conditions need not be identical. Identical values can stand only once. Like-named read-outs stand apart in the source and are kept apart here. Values belong to the compound of their own block, whether it stands above or below them.

Test: Mouse plasma and brain pharmacokinetics, IP administration
Type: in vivo
Settings: for AUC: read-out: AUC0.25–4 h brain; for AUC(0-t): read-out: AUC0.25–4 h plasma (AUCLAST); for concentration at 0.25 h / concentration at 0.5 h / concentration at 1 h / concentration at 2 h / concentration at 4 h: intraperitoneal
Method: IACUC-approved protocols and animal welfare regulations outlined in the “Guide for the Care and Use of Laboratory Animals” were both followed during the pharmacokinetic evaluation of all compounds. In vivo analysis was performed by Pharmaron (IP administration, Irvine, CA) and Sai Life (IV administration, Hinjewadi Pune, Pune, India).
A group (n = 15) of fed, male C57BL/6 mice ∼6 to 8 weeks of age was injected IP with 10 mg/kg (1 mg/mL) of drug using 50% PEG400 in water as a vehicle. Samples were collected from the blood and brain at 0.25, 0.5, 1, 2, and 4 h after administration (3 mice per time point) following CO2 anesthesia. Collection from the brain was performed as follows: the mouse is terminally anaesthetized via rising concentration of CO2 and as much blood is removed as possible via cardiac puncture. The cardiac puncture is done by opening the chest cavity to expose the heart, cutting an incision in the right auricle using surgical scissors, and finally injecting a saline solution (∼10 mL) slowly into the left ventricle via a syringe. The mouse is placed head down at a 45° angle to facilitate blood removal. After perfusion, the skull is opened and the brain is removed. The whole brain is washed with saline, dried with surgical gauze, placed in tared tubes, and stored at −75 °C before analysis. For plasma sample preparation at the 0.25–2 h time points, 15 μL of blank solution, 30 μL of plasma sample, and 150 μL were added sequentially for protein precipitation. After centrifugation, 20 μL of the supernatant and 80 μL of collection buffer were combined, and thus, the final compound concentration in plasma (ng/mL) was corrected by multiplying by 5. For plasma sample preparation at the 4 h time point, 15 μL of blank solution, 30 μL of plasma sample, and 150 μL of acetonitrile were added sequentially for protein precipitation. For all brain sample preparation, 15 μL of blank solution, 30 μL of brain samples, and 150 μL of acetonitrile were added sequentially for protein precipitation. Brain samples were prepared by adding brain (g) to deionized water (mL) in a 1:4 ratio for homogenization. The mixtures were then vortexed for 30 s and subsequently centrifuged (∼4000 rpm) for 15 min. The supernatant was diluted 3-fold with water, and a 2 μL aliquot of the diluted supernatant was injected into a Shimadzu LC-30A LC-MS/MS system with a Phenomenex 2.6 μ PFP 100A column (30 mm × 2.1 mm) using verapamil as an internal standard. A gradient from 95% water (0.1% formic acid) to 95% ACN (0.1% formic acid) was run over 2 min at a flow rate of 0.6 mL/min. Brain and blood samples were collected at 15, 30, 60, 120, and 240 min from three C57Bl/6 mice at each time point. See Tables S6–S10 for 2i concentrations.

[1] = male, C57BL/6, mouse, brain, 10 mg/kg IP
[2] = male, C57BL/6, mouse, brain, 10 mg/kg IP, read-out: Tmax brain
[3] = male, C57BL/6, mouse, plasma, 10 mg/kg IP
[4] = male, C57BL/6, mouse, plasma, 10 mg/kg IP, read-out: Tmax plasma
[5] = male, C57BL/6, mouse, plasma, 10 mg/kg IP, read-out: t1/2 plasma (converted)
[6] = male, mouse, plasma, 10 mg/kg IP, C57BL/6 mice

Cmax brain (10 mg/kg IP, C57BL/6 mice): 13 ng/mL
AUC [1]: 41 ng·h/mL
Tmax [2]: 4 h
AUC(0-t) [3]: 2270 ng·h/mL
Tmax [4]: 0.5 h
half-life [5]: 4.9 h
Cmax [6]: 815 ng/mL
Structure (SMILES): NC(=O)CC(F)(F)C(=O)N1N=C(c2c(-c3ccc(Cl)cc3)c3ccccc3[nH]c2=O)CC1c1ccc(Cl)cc1 (centres unmarked) [2k]

AUC % Extrapolation brain (10 mg/kg IP): 58%
AUC % Extrapolation plasma (10 mg/kg IP): 15%
AUCINF brain (10 mg/kg IP): 151 ng·h/g
AUCLAST brain (10 mg/kg IP): 64 ng·h/g
Cmax brain (10 mg/kg IP): 0.040 µM and 23 ng/g
Cmax brain (10 mg/kg IP, C57BL/6 mice): 23 ng/mL
Brain/plasma Ratio, individual (Group 1-3) (10 mg/kg IP, 0.25 h): 0.012 and 0.019
brain calculated concentration, individual (Group 1-3) (10 mg/kg IP, 0.25 h): 17.9 ng/g and 22.6 ng/g
plasma concentration, individual (Group 1-3) (10 mg/kg IP, 0.25 hr): 1500.0 ng/mL and 1180.0 ng/mL
Brain/plasma Ratio, individual (Group 1-3) (10 mg/kg IP, 0.5 h): 0.008 and 0.023 and 0.011
brain calculated concentration, individual (Group 1-3) (10 mg/kg IP, 0.5 h): 29.1 ng/g and 18.7 ng/g
brain calculated concentration, individual (Group 1-3) (10 mg/kg IP, 1 h): 16.5 ng/g and 14.9 ng/g
plasma concentration, individual (Group 1-3) (10 mg/kg IP, 1 hr): 1270.0 ng/mL and 1170.0 ng/mL
Brain/plasma Ratio, individual (Group 1-3) (10 mg/kg IP, 2 h): 0.016 and 0.022
brain calculated concentration, individual (Group 1-3) (10 mg/kg IP, 2 h): 18.0 ng/g and 24.3 ng/g
plasma concentration, individual (Group 1-3) (10 mg/kg IP, 2 hr): 1140.0 ng/mL and 1080.0 ng/mL
Brain/plasma Ratio, individual (Group 1-3) (10 mg/kg IP, 4 h): 0.058 and 0.050 and 0.022
brain calculated concentration, individual (Group 1-3) (10 mg/kg IP, 4 h): 10.4 ng/g and 12.8 ng/g
brain concentration in brain compartment (IP administration): 40 nM
brain concentration, upper limit if restricted to extracellular space (IP administration): ≤ 200 nM
Kp at 1 h (male, C57BL/6, mouse, brain and plasma, ip, 10 mg/kg, 10 mg/kg IP, 1 h, read-out: Brain/plasma Ratio, Mean): 0.013
Kp at 2 h (male, C57BL/6, mouse, brain and plasma, ip, 10 mg/kg, 10 mg/kg IP, 2 h, read-out: Brain/plasma Ratio, Mean): 0.018
Kp at 2 h (male, C57BL/6, mouse, brain and plasma, ip, 10 mg/kg, 10 mg/kg IP, 2 h, read-out: Brain/plasma Ratio, individual (Group 1-3)): 0.015
Kp at 4 h (male, C57BL/6, mouse, brain and plasma, ip, 10 mg/kg, 10 mg/kg IP, 4 h, read-out: Brain/plasma Ratio, Mean): 0.043
concentration at 0.25 h (male, C57BL/6, mouse, brain, 10 mg/kg, 10 mg/kg IP, 0.25 h, read-out: brain calculated concentration, Mean): 17.5 ng/g
concentration at 0.25 h (male, C57BL/6, mouse, brain, 10 mg/kg, 10 mg/kg IP, 0.25 h, read-out: brain calculated concentration, individual (Group 1-3)): 12 ng/g
concentration at 0.5 h (male, C57BL/6, mouse, brain, 10 mg/kg, 10 mg/kg IP, 0.5 h, read-out: brain calculated concentration, Mean): 22.8 ng/g
concentration at 0.5 h (male, C57BL/6, mouse, brain, 10 mg/kg, 10 mg/kg IP, 0.5 h, read-out: brain calculated concentration, individual (Group 1-3)): 20.6 ng/g
concentration at 1 h (male, C57BL/6, mouse, brain, 10 mg/kg, 10 mg/kg IP, 1 h, read-out: brain calculated concentration, Mean): 14.6 ng/g
concentration at 1 h (male, C57BL/6, mouse, brain, 10 mg/kg, 10 mg/kg IP, 1 h, read-out: brain calculated concentration, individual (Group 1-3)): 12.4 ng/g
concentration at 2 h (male, C57BL/6, mouse, brain, 10 mg/kg, 10 mg/kg IP, 2 h, read-out: brain calculated concentration, Mean): 19.4 ng/g
concentration at 2 h (male, C57BL/6, mouse, brain, 10 mg/kg, 10 mg/kg IP, 2 h, read-out: brain calculated concentration, individual (Group 1-3)): 15.9 ng/g
concentration at 4 h (male, C57BL/6, mouse, brain, 10 mg/kg, 10 mg/kg IP, 4 h, read-out: brain calculated concentration, Mean): 10.9 ng/g
concentration at 4 h (male, C57BL/6, mouse, brain, 10 mg/kg, 10 mg/kg IP, 4 h, read-out: brain calculated concentration, individual (Group 1-3)): 9.5 ng/g
Kp at 0.25 h (male, C57BL/6, mouse, brain/plasma, ip, 10 mg/kg, 10 mg/kg IP, 0.25 h, read-out: Brain/plasma Ratio, Mean): 0.014
Kp at 0.25 h (male, C57BL/6, mouse, brain/plasma, ip, 10 mg/kg, 10 mg/kg IP, 0.25 h, read-out: Brain/plasma Ratio, individual (Group 1-3)): 0.01
Kp at 0.5 h (male, C57BL/6, mouse, brain/plasma, ip, 10 mg/kg, 10 mg/kg IP, 0.5 h, read-out: Brain/plasma Ratio, Mean): 0.014
Kp at 1 h (male, C57BL/6, mouse, brain/plasma, ip, 10 mg/kg, 10 mg/kg IP, 1 h, read-out: Brain/plasma Ratio, individual (Group 1-3)): 0.015
Kp (male, C57BL/6, mouse, brain/plasma, ip, 10 mg/kg, 10 mg/kg IP, read-out: Ratio_AUCLAST (Brain/plasma)): 0.02
AUC [1]: 64 ng·h/mL
Tmax [2]: 0.5 h
half-life (male, C57BL/6, mouse, brain, 10 mg/kg IP, read-out: t1/2 brain): > 4 h
concentration at 0.25 h (male, C57BL/6, mouse, plasma, 10 mg/kg, 10 mg/kg IP, 0.25 hr, read-out: plasma concentration, Mean): 1310 ng/mL
concentration at 0.25 h (male, C57BL/6, mouse, plasma, 10 mg/kg, 10 mg/kg IP, 0.25 hr, read-out: plasma concentration, individual (Group 1-3)): 1250 ng/mL
concentration at 0.5 h (male, C57BL/6, mouse, plasma, 10 mg/kg, 10 mg/kg IP, 0.5 hr, read-out: plasma concentration, Mean): 1870 ng/mL
concentration at 1 h (male, C57BL/6, mouse, plasma, 10 mg/kg, 10 mg/kg IP, 1 hr, read-out: plasma concentration, Mean): 1150 ng/mL
concentration at 1 h (male, C57BL/6, mouse, plasma, 10 mg/kg, 10 mg/kg IP, 1 hr, read-out: plasma concentration, individual (Group 1-3)): 1020 ng/mL
concentration at 2 h (male, C57BL/6, mouse, plasma, 10 mg/kg, 10 mg/kg IP, 2 hr, read-out: plasma concentration, Mean): 1090 ng/mL
concentration at 2 h (male, C57BL/6, mouse, plasma, 10 mg/kg, 10 mg/kg IP, 2 hr, read-out: plasma concentration, individual (Group 1-3)): 1060 ng/mL
concentration at 4 h (male, C57BL/6, mouse, plasma, 10 mg/kg, 10 mg/kg IP, 4 hr, read-out: plasma concentration, Mean): 319 ng/mL
Cmax [3]: 3300 nM
AUC(0-t) [3]: 3850 ng·h/mL
AUC(0-inf) (male, C57BL/6, mouse, plasma, 10 mg/kg IP, read-out: AUCINF plasma): 4550 ng·h/mL
Tmax [4]: 0.5 h
half-life [5]: 1.5 h
Cmax [6]: 1870 ng/mL
Structure (SMILES): O=C(O)CC(F)(F)C(=O)N1N=C(c2c(-c3ccc(Cl)cc3)c3ccccc3[nH]c2=O)CC1c1ccc(Cl)cc1 (centres unmarked) [2i]
plasma concentration, individual (Group 1-3) (10 mg/kg IP, 0.5 hr): 2620.0 ng/mL and 1260.0 ng/mL and 1740.0 ng/mL
plasma concentration, individual (Group 1-3) (10 mg/kg IP, 4 hr): 163.0 ng/mL and 208.0 ng/mL and 585.0 ng/mL
